{"source": "patent US20250145715A1", "about": "“B7-H3 TARGETING FUSION PROTEINS AND METHODS OF USE THEREOF” (GT Biopharma, Inc., priority 2021, published 2025)", "format_in_all_cases": "cell-based, human", "key": {"H929 cells": {"system": "H929 cells", "assay": "IncuCyte Zoom NK cell killing of H929", "conditions": "bortezomib 10 nM or lenalidomide 5 μM with B7-H3-TriKE and NK cells, 48 hours", "text": "(§1) FIGS. 8A-8D illustrate the ability of peripheral blood NK cells with or without B7-H3-TriKE to kill myeloma cells in live imaging IncuCyte Zoom assays. FIG. 8A is a graph showing the effects with effector:target (E:T) ratios of 2:1 and 4:1 on H929 cells. FIG. 8B is a graph showing the effects with effector:target (E:T) ratios of 2:1 and 4:1 on MM1S cells. FIG. 8C is a graph showing the effects with effector:target (E:T) ratios of 2:1 and 4:1 on RPMI-8226 cells. FIG. 8D is a graph showing the effects with effector:target (E:T) ratios of 2:1 and 4:1 on U266 cells.\n(§2) FIGS. 9A-9D illustrate the efficacy of B7-H3-TriKE with the proteasome inhibitor bortezomib (10 nM) and the immunomodulatory drug lenalidomide (5 μM). FIG. 9A is a graph showing the effect of the combination therapy on H929 cells after 48 hours. FIG. 9B is a graph showing the effect of the combination therapy on RPMI-8226 cells after 48 hours. FIG. 9C is a graph showing the effect of the combination therapy on MM1S cells after 48 hours. FIG. 9D is a graph showing the effect of the combination therapy on U266 cells after 48 hours.\n(§3) The ability of peripheral blood NK cells with or without B7-H3-TriKE to kill myeloma cells was compared in live imaging IncuCyte Zoom assays with escalating doses of TriKE. Maximal killing occurred with 3 nM concentration.\n(§4) The efficacy of B7-H3-TriKE with the proteasome inhibitor bortezomib (10 nM) and the immunomodulatory drug lenalidomide (5 μM) was also tested. Cytotoxicity curves were compared by repeated measures ANOVA and performed in triplicate."}, "U266 cells": {"system": "U266 cells", "assay": "IncuCyte Zoom NK cell killing of U266", "conditions": "bortezomib 10 nM with B7-H3-TriKE and NK cells, 48 hours", "text": "(§5) FIGS. 7A-7B illustrate the ability of peripheral blood NK cells with or without B7-H3-TriKE to kill myeloma cells in live imaging IncuCyte Zoom assays. FIG. 7A is a graph showing the effects with effector:target (E:T) ratios of 2:1 and 4:1 on MM1S cells. FIG. 7B is a graph showing the effects with effector:target (E:T) ratios of 2:1 and 4:1 on U266 cells.\nas §1\nFIGS. 9A-9D illustrate the efficacy of B7-H3-TriKE with the proteasome inhibitor bortezomib (10 nM) and the immunomodulatory drug lenalidomide (5 μM). FIG. 9A is a graph showing the effect of the combination therapy on H929 cells after 48 hours. FIG. 9B is a graph showing the effect of the combination therapy on RPMI-8226 cells after 48 hours. FIG. 9C is a graph showing the effect of the combination therapy on MM1S cells after 48 hours. […]"}, "RPMI-8226 cells": {"system": "RPMI-8226 cells", "assay": "IncuCyte Zoom NK cell killing of RPMI-8226", "conditions": "bortezomib 10 nM or lenalidomide 5 μM with B7-H3-TriKE and NK cells, 48 hours", "text": "as §1, §2, §3, §4"}, "MM1S cells": {"system": "MM1S cells", "assay": "IncuCyte Zoom NK cell killing of MM1S", "conditions": "bortezomib 10 nM or lenalidomide 5 μM with B7-H3 TriKE and NK cells, 48 hours; not statistically significant", "text": "as §5, §1, §2, §3, §4"}, "T cells (CD56−CD3+)": {"system": "T cells (CD56−CD3+)", "assay": "T cell proliferation in PBMCs, CellTrace Violet dilution", "conditions": "7 days, 5 nM equimolar", "method": "FIGS. 2A-2H illustrates that cam1615B7-H3 TriKE induces potent, and specific, natural killer (NK) cell proliferation. Peripheral blood mononuclear cells (PBMCs) were CellTrace Violet labeled and incubated for seven days at 5 nM equimolar concentrations of rhIL-15 or cam1615B7-H3 TriKE. On day 7, the cells were harvested and stained for flow cytometric evaluation. […] FIG. 2B is a graph illustrating pooled data showing the overall proportion of NK cells that proliferated. FIG. 2C is a graph illustrating pooled data showing the proportion of NK cells that highly proliferated (measured as proliferation beyond three divisions). FIG. 2D is a graph illustrating pooled data showing NK cell counts in the cultures (N=9). FIG. 2E is a representative histogram showing T cell (CD56− CD3+) proliferation. FIG. 2F is a graph illustrating pooled data showing the overall proportion of T cells proliferated. FIG. 2G is a graph illustrating pooled data showing the proportion of T cells highly proliferated. FIG. 2H is a graph illustrating pooled data showing T cell counts in the cultures (N=9). * p<0.05, ** p<0.01, *** p<0.001.\nThe wild-type IL-15 moiety in the cam1615B7-H3 TriKE was designed to induce targeted delivery of a proliferative signal to NK cells. To test this, proliferation assays evaluating dilution of a CellTrace dye over a 7-day period were carried out on PBMCs treated with no treatment (NT), monomeric rhIL-15 (IL15), or the TriKE (cam1615B7-H3). At the end of the seven days, cells were harvested and proliferation was evaluated by gating on CD56+CD3− cells. […] Since IL-15 acts on both NK cells and T cells, specificity was evaluated next by gating on T cells (CD56-CD3+).\nTo measure the ability of the TriKE to specifically induce NK cell expansion via the IL-15 moiety, PBMCs from healthy donors were labeled with CellTrace Violet Proliferation Dye (Invitrogen, Carlsbad, CA, USA) according to kit specifications. After staining, cells were cultured with TriKEs at noted concentrations, or equimolar concentrations of controls, and incubated in a humidified atmosphere containing 5% CO2 at 37° C. for seven days. Cells were harvested, stained for viability with Live/Dead reagent (Invitrogen, Carlsbad, CA, USA) and surface stained for anti-CD56 PE/Cy7 (Biolegend, San Diego, CA, USA) and anti-CD3 PE-CF594 (BD Biosciences, Franklin Lakes, NJ, USA) to gate on the viable CD56+ CD3− NK cell population or the CD56-CD3+ T cell population. Data analysis was performed using FlowJo software (FlowJo LCC, version 7.6.5, Ashland, OR, USA)."}, "[1]": {"system": "OVCAR8 ovarian cancer cells", "assay": "NK cell CD107a / IFNγ flow cytometry against OVCAR8", "conditions": "individual components with PBMCs and OVCAR8", "method": "FIG. 29A is a graph illustrating pooled proportion of NK cells from healthy donors expressing CD107a+ (degranulation) against OVCAR8 and MA148 targets. FIG. 29B is a graph illustrating pooled proportion of NK cells from healthy donors expressing IFNγ cytokine production against OVCAR8 and MA148 targets.\nHealthy donor or ovarian cancer PBMC cells were incubated with ovarian tumor targets at 2:1 E:T ratio for 4 hrs with 30 nM TriKE or control condition. FIG. 30A is a graph illustrating pooled proportion of NK cells from healthy donors expressing CD107a+ (degranulation) against OVCAR8 targets (N=8). FIG. 30B is a graph illustrating pooled proportion of NK cells from healthy donors expressing IFNγ cytokine production against OVCAR8 targets (N=8). FIG. 30C is a graph illustrating pooled proportion of NK cells from healthy donors expressing CD107a+ (degranulation) against OVCAR3 targets (N=4). FIG. 30D is a graph illustrating pooled proportion of NK cells from healthy donors expressing IFNγ cytokine production against OVCAR3 targets (N=4). FIG. 30E is a graph illustrating pooled proportion of NK cells from healthy donors expressing CD107a+ (degranulation) against OVCAR5 targets (N=7). FIG. 30F is a graph illustrating pooled proportion of NK cells from healthy donors expressing IFNγ cytokine production against OVCAR5 targets (N=7). […] FIG. 30I is a graph illustrating that tumor killing was evaluated using IncuCyte imaging assay. […] The percentage of Live (Nuclight Red+Caspase 3/7−) tumor cells was quantified over a 48-h period and normalized to tumor alone. Readings were obtained every 15 min (representative of four separate experiments). * p<0.05, ** p<0.01, *** p<0.001, and **** p<0.0001.\nADCC was measured in a flow cytometry assay by evaluating degranulation via CD107a (lysosomal-associated membrane protein LAMP-1) and intracellular IFNγ production. […] Samples were washed and evaluated in an LSRII flow cytometer (BD Biosciences, San Jose, CA, USA).\nThe ability of cam1615B7-H3 TriKE to mediate NK cell activity against ovarian cancer cells was evaluated. […]"}}, "data": [{"compound": "CC(C)C[C@H](NC(=O)[C@H](Cc1ccccc1)NC(=O)c1cnccn1)B(O)O", "note": "[bortezomib, reference compound]", "values": [{"measurement": "killing of H929 in combination therapy", "setting": "H929 cells", "value": "did not further enhance killing"}, {"measurement": "killing of U266 in combination therapy", "setting": "U266 cells", "value": "enhanced killing"}, {"measurement": "killing of RPMI-8226 in combination therapy", "setting": "RPMI-8226 cells", "value": "synergistic killing"}, {"measurement": "killing of MM1S in combination therapy", "setting": "MM1S cells", "value": "trend toward improved killing"}]}, {"compound": "Nc1cccc2c1CN(C1CCC(=O)NC1=O)C2=O", "note": "(stereo not drawn) [lenalidomide]", "values": [{"measurement": "killing of H929 in combination therapy", "setting": "H929 cells", "value": "synergistic killing"}, {"measurement": "killing of RPMI-8226 in combination therapy", "setting": "RPMI-8226 cells", "value": "synergistic killing"}, {"measurement": "killing of MM1S in combination therapy", "setting": "MM1S cells", "value": "trend toward improved killing"}]}, {"compound": "rhIL-15: monomeric recombinant human IL-15 control [reference compound]", "values": [{"measurement": "overall T cell proliferation", "setting": "T cells (CD56−CD3+)", "value": "robust proliferation of T cells"}, {"measurement": "NK cell activity against OVCAR8 by individual components", "setting": "[1]", "value": "do not enhance NK cell activity"}]}]}
